Values joined by “and” are separate entries in the source; they are usually repeats but may differ in a detail not shown here. Identical values can stand only once.
Key:
[1] = system: human melanoma patient-derived xenograft (PDX); assay: Human melanoma patient-derived xenograft (PDX) tumor growth; assay type: in vivo, NSG mice; conditions: Fig.3f, 1.5mg/kg, individual animals, in mm³ (unit assumed)
From the text: PO, oral administration; QD, once daily; BID, twice daily. b–d Tumor growth curves for A2780 ovarian tumor (n = 5) (b), TMD8 large B cell lymphoma (n = 6) (c), and B16F10 melanoma (n = 5) (d) bearing mice treated with the indicated compounds once daily for 11-21 days. e, f Tumor growth curves for A375 melanoma (n = 6) (e), and patient-derived xenograft (PDX) of melanoma (n = 5) (f) bearing mice treated with the indicated compounds once daily (5 days on, 2 days off) for 21 days. For d–f, NHWD-870 used is NHWD-870-HCl synthesized using Suzuki coupling route. Data are presented as mean ± SEM in (a, b, d, f) and mean + SEM in (c, e). p values were calculated using two-tailed, unpaired t tests. *p < 0.05; **p < 0.01; ***p < 0.001. Source data are provided as a Source Data file.
4–6 weeks old female BALB/c nude mice were used for most experiments, with the exception of 6–8 weeks old female C57BL/6 mice were used for B16F10 experiments, and 6–8 weeks old male BALB/c nude mice and SD rats were used for pharmacokinetic experiments. All animals were purchased from Shanghai SIPPR-Bk Lab Animal Co., Ltd. All animals were housed under a regimen of 12 h light/12 h dark cycles and specific pathogen-free conditions. 5×10^6 NCI-H526, ES-2, MDA-MB231, A2780, A375, B16F10, and TMD-8 cells (0.1 ml) were injected subcutaneously into female nude mice. The melanoma patient-derived xenograft model was derived from a human melanoma sample (BRAF, NARS and NF1 wild type, and p53 mutant) removed from a patient in Xiangya Hospital. Surgically removed tumor fragments were implanted subcutaneously into female NSG mice. When the tumors grew to ~1000 mm^3, they were harvested and cryopreserved or immediately re-implanted for expansion or experiments. Mouse body weight and tumor sizes were measured every 3 days. Once the tumors grew to 150–200 mm^3, mice were treated with the compounds as described in the Figures. 1 × 10^6 A2780 cells (1 ml) were injected into the abdominal cavity of nude mice. Ascitic volume and tumor weight were measured by an electronic balance. All the procedures were evaluated and approved by the Institutional Animal Care and Use Committee of Central South University and Yale University.

HIF1 reporter activity = assay: HIF1 luciferase reporter assay; assay type: cell-based, human; conditions: A2780 and A375 cells, 20% or 1% O2, 24 h
Method: Fig. 7 NHWD-870 inhibited CSF1 expression through suppressing BRD4 and HIF1α in tumor cells. a, b Representative western blot analysis of control (Ctrl) and BRD4 knockout (KO) A375 and A2780 cells exposed to 20% or 1% O2 for 24 hours. Selected from three independent experiments. c, d Representative western blot analysis of A375 and A2780 cells treated with DMSO or 25 nM NHWD-870 and exposed to 20% or 1% O2 for 24 h. Selected from three independent experiments. e Relative HIF1 luciferase reporter activity in control (Ctrl), BRD4 knockout (KO), or NHWD-870 treated A375 and A2780 cells exposed to 20% or 1% O2 for 24 h. Data are presented as mean ± SEM from three independent experiments. f RT-qPCR analyses of CSF1 in control (Ctrl), BRD4 knockout (KO), or NHWD-870 treated A375 and A2780 cells exposed to 20% or 1% O2 for 24 hours. Data are presented as mean ± SEM from three independent experiments. g RT-qPCR analyses of HIF1A in A375 or A2780 cells treated with 15 nM NHWD-870 or DMSO control for 24 h. Data are presented as mean ± SEM from three independent experiments. h Genome browser view of BRD4 ChIP-seq peaks on the HIF1A promoter. Shown are BRD4 ChIP and input control of A375 cells (top panel) and BRD4 ChIP of MDA-MB231 cells treated with DMSO or JQ-1 (bottom panel). i BRD4 ChIP-qPCR analyses of the HIF1A promoter in A2780 cells treated with DMSO or NHWD-870 for 72 h. Data are presented as mean ± SEM from three independent experiments. j RT-qPCR analyses of CSF1 in A375 and A2780 cells were transiently transduced with HIF1α, then exposed to 1% O2 for 24 h. Ctrl, Control. Data are presented as mean ± SEM from three independent experiments. k A model showing the effects of NHWD-870 on cancer cell-TAM interaction. NHWD-870 inhibits the proliferation and survival of TAMs partly by inhibiting BRD4 activity, HIF1α expression, and CSF1 secretion by tumor cells, and downregulating CSF1R mediated ERK and PI3K/AKT signaling in TAMs. p values were calculated using two-tailed, unpaired t tests in this figure. *p < 0.05; **p < 0.01; ***p < 0.001. Source data are provided as a Source Data file.
Supplementary Figure 15. […]
Data in (a) and (c-e) are presented as mean ± SEM from 3 independent experiments. p values were calculated using two-tailed, unpaired t tests. **, p<0.01; ***, p<0.001. Source data are provided as a Source […]
All patients had […]
undergone complete cytoreductive surgery.
14. Immunohistochemical staining. Paraffin-embedded implantation samples isolated from peritoneal metastasis of EOC patients (128 cases) were sectioned at a thickness of 4μm. To stain CD68, CSF1 and p-BRD4, the slides were first deparaffinized in xylene and rehydrated with gradient concentrations of alcohol under standard procedures. After rehydration, the slides were immersed in 0.01 mol/L citrate buffer (pH 6.0) and heated (95°C) for 15 min for antigen retrieval.
Then, the samples were incubated with 3% hydrogen peroxide (H2O2) for 10 minutes followed by 10% normal goat serum blocking for 10 minutes. Subsequently, the sections were incubated with rabbit polyclonal anti-human CD68 antibody (dilution 1:100) (sc-20060, Santa Cruz Biotechnology) and anti-human p-BRD4

A375 melanoma cells = assay: AlamarBlue assay, A375; assay type: cell-based, human; conditions: for Cellular activity in melanoma cells (A375), alamarBlue: Fig.1g, replicates
Method: 3. AlamarBlue assay. AlamarBlue was made by resazurin sodium salt (Sigma, Cat
# 199303) dissolved in PBS.
NCI-H211, MDA-MB231 and A375 cells were plated in 96-well plates at approximately 30% confluence and left overnight to adhere. In the following day, […]
of treatment, 10 μl AlamarBlue reagent (0.3 mg/ml) was added to each well, and after 18h, the florescence intensity in each well was measured using a top-reading fluorescent plate reader with excitation at 530 nm and emission at 590 nm. […]

TAMs = assay: Transwell co-culture of pretreated A2780 cells and TAMs with CSF1 or anti-CSF1R antibodies; assay type: cell-based, mouse; conditions: co-culture with pretreated A2780 cells, MCSF-1 10ng/ml where added
Method: Fig. 6 CSF1/CSF1R signaling is critical for the tumor inhibitory effects of NHWD-870 and CSF1 induced ovarian cancer growth depends on macrophages. a Number of TAMs after treatment with the indicated concentration of CSF1 for 48 h. Data are presented as mean ± SEM from three independent experiments. b–d Schematics of the experiments (b). A2780 cells (pre-treated with DMSO or 100 nM NHWD-870 for 48 h) were seeded into the top chamber (transwell size: 0.4 μm), and TAMs (Mac, 40,000 cells per 24-well) in medium with PBS or 10 ng/ml CSF1 (c), or 50 ng/ml IgG or anti-CSF1R antibodies (d), were seeded into the bottom chamber. Shown are quantification of TAMs (c, d). Data are presented as mean ± SEM from three independent experiments. e Representative western blot analysis of A2780 cells stably transfected with CSF1 or empty vector (EV). Selected from three independent experiments. f Schematics of the animal experiments using an orthotopic mouse OC model, established by intraperitoneally injecting 1 × 10^6 (g–j) or 2 × 10^6 (k–m) human A2780 cells overexpressing CSF1 or control into female recipient nude mice. Mice were then treated with/without liposomal clodronate (LC) for 45 days (g–j) or treated with/without NHWD-870 (PO, QD, 3 mg/kg) for 37 days (k–m). g Increased mouse body weight was measured at the indicated time points (day 0-45 after LC treatment). h–j Net tumor weight (h), ascitic fluid volumes (i) tumor implantations in peritoneum, omentum and pevic cavity (j) were measured at day 45 from LC treatment. k–m Net tumor weight (k), ascitic fluid volumes (l) tumor implantations in peritoneum, omentum and pevic cavity (m) were measured at day 37 after NHWD-870 treatment. For g–m, data are presented as mean ± SEM from five different mice. p values were calculated using two-tailed, unpaired t tests in this figure. n.s, not significant; *p < 0.05; **p < 0.01; and ***p < 0.001. Source data are provided as a Source Data file.
CD45^+CD11b^+F4/80^+ TAMs were isolated from peritoneal metastasis of A2780 tumor-bearing mice and cultured in RPMI-1640 supplemented with 10% FBS, 1% penicillin/streptomycin, and 0–50 ng/ml CSF1 (R&D Systems) as indicated according to standard protocols. In the cancer cell-macrophage co-culture experiments, CSF1 was not added. In the transwell (Corning, pore size, 0.4 μm) co-culture experiments, tumor cells were placed into the upper chamber, and TAMs were seeded into the lower chamber.

For Cc1nnn(C)c1-c1cnc2c3c4cnn(C)c4ccc3n([C@H](c3ccccc3)C3CCOCC3)c2c1.Cl [870-HCI], the Tumor volume ([1]; day 0) was 0, the Tumor volume ([1]; day 3) was 76 and 83 and 79 and 110 and 130 and the Tumor volume ([1]; day 7) was 143 and 132 and 174 and 201 and 230. The Tumor volume ([1]; day 11) was 195 and 185 and 250 and 289 and 310, the Tumor volume ([1]; day 15) was 264 and 276 and 364 and 396 and 423 and the Tumor volume ([1]; day 19) was 349 and 303 and 474 and 530 and 503. For the same molecule, the Tumor volume ([1]; day 21) was 425 and 403 and 503 and 684 and 603.

With Cc1sc2c(c1C)C(c1ccc(Cl)cc1)=N[C@@H](CC(=O)Nc1ccc(O)cc1)c1nnc(C)n1-2 [OTX-015] the HIF1 reporter activity (HIF1 reporter activity) was “significantly decreased HIF1 reporter activity”, the “Cellular activity in melanoma cells (A375), alamarBlue” value (“Cellular activity in melanoma cells” below) (A375 melanoma cells; concentration(nM) 0.21442) was 0.2687 and 0.138 and the “Cellular activity in melanoma cells” value (A375 melanoma cells; concentration(nM) 0.31236) was 1.399 and 1.862. For the same molecule, the “Cellular activity in melanoma cells” value (A375 melanoma cells; concentration(nM) 0.4103) was 3 and 0.4387, the “Cellular activity in melanoma cells” value (A375 melanoma cells; concentration(nM) 0.6032) was 12.3903 and 10.5044 and the “Cellular activity in melanoma cells” value (A375 melanoma cells; concentration(nM) 1.2043) was 24.9941 and 17.1565. The “Cellular activity in melanoma cells” value (A375 melanoma cells; concentration(nM) 1.8024) was 69.0356 and 72.751, the “Cellular activity in melanoma cells” value (A375 melanoma cells; concentration(nM) 2.4) was 91.1738 and 98.6047 and the “Cellular activity in melanoma cells” value (A375 melanoma cells; concentration(nM) 3) was 100.838 and 100.296. It also gave an IC50 (A375 melanoma cells; Homo sapiens, A-375, nM printed in b8, the picture prints no unit, read-out: IC50, cellular activity in A375 (alamarBlue)) of 34.8 nM.

B1: MCSF-1 (protein, UniProt P09603 33-554, looked up)
Macrophage colony-stimulating …: EEVSEYCSHMIGSGHLQSLQRLIDSQMETSCQITFEFVDQEQLKDPVCYLKKAFLLVQDIMEDTMRFRDNTPNAIAIVQLQELSLRLKSCFTKDYEEHDKACVRTFYETPLQLLEKVKNVFNETKNLLDKDWNIFSKNCNNSFAECSSQDVVTKPDCNCLYPKAIPSSDPASVSPHQPLAPSMAPVAGLTWEDSEGTEGSSLLPGEQPLHTVDPGSAKQRPPRSTCQSFEPPETPVVKDSTIGGSPQPRPSVGAFNPGMEDILDSAMGTNWVPEEASGEASEIPVPQGTELSPSRPGGGSMQTEPARPSNFLSASSPLPASAKGQQPADVTGTALPRVGPVRPTGQDWNHTPQKTDHPSALLRDPPEPGSPRISSLRPQGLSNPSTLSAQPQLSRSHSSGSVLPLGELEGRRSTRDRRSPAEPEGGPASEGAARPLPRFNSVPLTDTGHERQSEGSFSPQLQESVFHLLVPSVILVLLAVGGLLFYRWRRRSHQEPQRADSPLEQPEGSPLTQDDRQVELPV
In the case of B1, the “Number of TAMs (Fig.6c)” value (TAMs; time 0) is reported as 5, the “Number of TAMs (Fig.6c)” value (TAMs; time 24) is reported as 6.1 and 7 and 6.4 and the “Number of TAMs (Fig.6c)” value (TAMs; time 48) is reported as 18.4 and 16.8 and 17.9. The “Number of TAMs (Fig.6c)” value (TAMs; time 72) was 34.1 and 29.5 and 32.5.

Reference: PMC7156724, “Potent BRD4 inhibitor suppresses cancer cell-macrophage interaction” (Nature Communications, 2020)
